Values quoted from earlier work in patent US20080085858A1, “Pharmaceutical Composition” (KYOWA HAKKO KOGYO CO., LTD., priority 2004, published 2008).

Assays:
[1] = system: delayed-type allergic reaction in the skin; conditions: animal model; Non-patent Document 1
[2] = system: chronic dermatitis models; conditions: Non-patent Document 2

COc1ccc([C@]2(C#N)CC[C@@H](C(=O)O)CC2)cc1OC1CCCC1 [SB207499]
Effect on delayed-type allergic reaction in the skin [1]: inhibit a delayed-type allergic reaction in the skin | Therapeutic effects on chronic dermatitis models [2]: exhibit therapeutic effects on chronic dermatitis models
